Earlier results on one compound are cited in patent US6776977B2, “Polypodal chelants for metallopharmaceuticals” (Bristol-Myers Squibb Pharma Company, priority 2001, dated 2004).

Molecules are shown by their SMILES.

The conditions of this data set: decomposition under acidic conditions.

`O=C([O-])CN(CCN(CC(=O)[O-])CC(=O)[O-])CCN(CC(=O)[O-])CC(=O)[O-].[Gd+3]` [Gd(DTPA)^2−]: the Kobs is 0.0012 s⁻¹.
